# Test results taken from patent US12144791B2, “KRAS agonists, pharmaceutical compositions, and uses in managing cancer” (Emory University, priority 2019, dated 2024).
# Columns and labels:
# KRAS G13D = KRAS G13D (Homo sapiens, UniProt P01116, G13D); assay: Thermal shift assay, purified KRAS G13D; type: binding; settings: increasing concentrations
# Method: Melting temperature (Tm) values of DMSO Ctrl and 15 μM of KRA-533 are shown.
# (§1) To test whether KRA-533 directly binds to KRAS, a thermal shift assay was employed. […] To further assess whether KRA-533 activates KRAS directly, an in vitro cell-free GDP-GTP exchange experiment was carried out. Purified WT, G12C, G12D or G13D mutant KRAS proteins were incubated with purified GEF (RASGRP1) and GAP (RASA1) proteins in reaction buffer containing [γ-35S]-GTP in the absence or presence of increasing concentrations of KRA-533 at 25° C. for 60 min. KRAS activity was quantified by liquid scintillation counting. […] These findings indicate that KRA-533 not only activates WT KRAS but also has the capacity to further enhance KRAS activity of mutant KRAS.
# NSCLC cells [1] = assay: MTS Cell Proliferation Colorimetric Assay; type: cell-based, human; settings: 48 h
# Text: (§2) A library containing small molecules from the National Cancer Institute (NCI) was employed to dock the GTP/GDP binding pocket of KRAS (PDB ID code: 4EPT) using the University of California, San Francisco (UCSF) DOCK 6.1 program suite. The small molecules were ranked according to their energy scores. Top 500 small molecules with predicted binding energies were selected for screening of cytotoxicity in human lung cancer cells by sulforhodamine B (SRB) assay. […] This lead compound was named KRAS agonist-533 (KRA-533) (FIG. 1A). To test whether KRA-533 regulates KRAS activity in lung cancer cells, human lung cancer cell lines with or without KRAS mutation were treated with KRA-533 (10 μM) for 48 h. […] Cell proliferation was also measured following treatment of cells for 48 h using MTS Cell Proliferation Colorimetric Assay Kit.
# KRAS G12D = KRAS G12D (Homo sapiens, UniProt P01116, G12D); assay: In vitro cell-free GDP-GTP exchange, KRAS G12D; type: biochemical; settings: with GEF (RASGRP1) and GAP (RASA1), 25° C., 60 min
# Method: GTPγS, purified GFP (RASGRP1, 180 nM) and GAP (RASA1, 180 nM) at 25° C. in the presence or absence of increasing concentrations of KRA-533.
# as §1
# [2] = test system: G12D mutant KRAS-driven lung cancer; assay: Genetically engineered LSL-KRASG12D mouse lung cancer model; type: in vivo
# Text: Tumor numbers were counted under the microscope and tumor area was quantified using modular imaging software.
# KRAS mutations are common genetic alterations in NSCLC and contribute to the resistance of lung cancer to conventional therapy. To test the potency of KRA-533 in mutant KRAS-driven lung cancer, lox-stop-lox (LSL)-KRASG12D mice were generated. By engineering LoxP DNA elements into the mouse genome that surround a synthetic ‘stop’ element (lox-stop-lox) inserted in front of mutant KRAS G12D, one can ‘turn-on’ mutant KRAS G12D with delivery of Cre recombinase. To control the expression of KRAS G12D, a LSL cassette was engineered into the first intron of the KRAS gene. The LSL cassette consists of transcriptional and translational stop elements flanked by LoxP sites that prevent the expression of the mutant allele until the stop elements are removed by the activity of Cre recombinase. To produce KRAS G12D mutant-driven lung cancer, alleles were induced in mouse lung using intranasal administration of a lentiviral Cre recombinase. Primary lung tumors developed around 12 weeks post-inoculation.
# To assess whether KRA-533 has antitumor activity against G12D mutant KRAS-driven lung cancer in genetically engineered mouse models, KRA-533 (20 mg/kg/d) or vehicle control was administered i.p. starting at 10 weeks post AdeCre delivery. After treatment for 3 months, mice were euthanized for analysis of tumor burden. […] There were 3 deaths out of 8 mice in the control group versus 1 death out of 8 mice in the KRA-533 treatment group in four months before euthanization.
# NSCLC cells [3] = assay: Colony formation assay; type: cell-based, human; settings: 10 μM, 10 days; A549, H358, H157, Calu-1, H1972 vs H292, HCC827, H1975, H322
# KRAS = assay: KRAS-GTP pull-down by Raf-1-RBD and Western blot in lung cancer cell lines; type: cell-based, human; settings: 48 h
# Method: (§3) “0” means DMSO vehicle control. […] Expression levels of KRAS, pERK, active caspase 3, PARP cleavage, Beclin1, LC3-I and LC3-II in total lysate were analyzed by Western blot.
# as §2
# (§4) Activated KRAS can trigger cell death via apoptosis and autophagy-associated cell death in cancer cells. To test whether KRA-533- activated KRAS promotes apoptosis and autophagic cell death, A549, H157, Calu-1 and H292 cells were treated with increasing concentrations of KRA-533 for 48 h, followed by analysis of KRAS activity, apoptosis and autophagy. […] Autophagy was measured by analysis of LC3-I/LC3-II and p62 following treatment of cells with KRA-533. It is well known that p62 is an autophagy receptor or substrate that can be degraded by autophagy. In addition to LC3-II, p62 was analyzed as another autophagy marker. […] To further quantify the level of autophagy, a GFP-LC3 construct was used to indicate autophagosomes. After treatment with KRA-533, GFP-LC3 redistributed from a diffuse staining pattern in the cytoplasm and nucleus to a cytoplasmic punctate structure that specifically labels pre-autophagosomal and autophagosomal membranes (i.e. GFP-LC3 vac cells). […] These findings indicate that, in addition to apoptosis, KRA-533 can also induce autophagic cell death.
# [4] = test system: A549, H157, Calu-1 and H292 cells; assay: Western blot of pERK, apoptosis and autophagy markers in total lysate; type: cell-based, human; settings: 0, 5, 10, 15 μM, 48 h
# Method: as §3, §4
# human lung cancer cells = assay: Screening of cytotoxicity by sulforhodamine B (SRB) assay; type: cell-based; settings: among top 500 docked NCI small molecules
# Text: as §2
compound,measurement,setting,value
"O=C(CBr)NCCCCc1ccc(C(=O)O)cc1 [KRA-533, 4-(4-(2-bromoacetamido)butyl)benzoic acid]","melting temperature (Tm) / binding, KRAS G13D",KRAS G13D,Dose dependent increases in melting temperature (Tm)
same,cell proliferation,NSCLC cells [1]; various NSCLC cells,suppression of cell proliferation
same,"sensitivity of cell proliferation, KRAS mutant cells versus H292","NSCLC cells [1]; A549, H157, Calu-1 vs H292",more sensitive to KRA-533 than H292 cells without KRAS mutation
same,"KRAS activity (liquid scintillation), KRAS G12D",KRAS G12D,further enhanced the activities of active KRAS mutants
same,deaths in four months before euthanization,[2]; 20 mg/kg/d i.p.,1 death out of 8 mice
same,weight loss and normal tissue toxicity,[2]; 20 mg/kg/d i.p.,Slight weight loss but no significant normal tissue toxicity
same,tumor burden and multiplicity in the lung,"[2]; 20 mg/kg/d i.p. from 10 weeks post AdeCre, four months",significant reduction of tumor burden and multiplicity in the lung
same,survival,"[2]; 20 mg/kg/d i.p., compared with the control group",prolonged survival
same,"cell growth suppression (colony formation), KRAS mutant versus non-mutant cell lines",NSCLC cells [3],relatively more sensitive to KRA-533-mediated cell growth suppression than those without KRAS mutation
same,"KRAS activity, cell lines bearing KRAS mutation versus without",KRAS; 10 μM,enhanced KRAS activity to a greater extent in cell lines bearing KRAS mutation than in cell lines without KRAS mutation
same,KRAS activity (GTP-KRAS pulled down by Raf-1-RBD),"KRAS; 10 μM, human lung cancer cell lines with or without KRAS mutation","enhanced KRAS activity in most human lung cancer cell lines tested, except H292"
same,"KRAS activity (KRAS-GTP), dose response","KRAS; A549, H157, Calu-1 and H292 cells, 0, 5, 10, 15 μM",enhanced KRAS activity in a dose-dependent manner
same,LC3-II,[4],dose-dependent increase of LC3-II
same,PARP cleavage,[4],increased
same,levels of pERK,[4],increased levels
same,p62,[4],dose-dependent decrease of p62
same,ratio of active caspase 3/procaspase 3,[4],increased
same,"activity against human lung cancer cells (cytotoxicity, SRB assay)",human lung cancer cells,the most potent activity against human lung cancer cells
